The source of these data is patent publication US5026708A, “Pyrimidine type mevalonolactones” (Nissan Chemical Industries Ltd., priority 1987, dated 1991).

The test system of series [1] is cholesterol biosynthesis in which HMG-CoA reductase serves as a rate limiting enzyme (rat liver microsome and sup fraction). In words: Test A: Inhibition of cholesterol biosynthesis from acetate in vitro. It counts as biochemical, male Wistar rat. The note with it: for Relative activities by Test A: based on the activities of CS-514 by Test A being evaluated to be 1; for IC50: Test A, rat liver microsome and sup fraction, [2-14C]sodium acetate, 2 hours at 37° C., read-out: IC50 (molar concentration), inhibitory activities by Test A. As to the method: Enzyme solution was prepared from liver of male Wistar rat billialy connulated and discharged bile for over 24 hours. Liver was cut out at mid-dark and microsome and supernatant fraction which was precipitable with 40-80% of saturation of ammonium sulfate (sup fraction) were prepared from liver homogenate according to the modified merhod of Knauss et. al.; Kuroda, M., et. al., Biochim. Biophys. Acta, 489, 119 (1977). For assay of cholesterol biosynthesis, microsome (0.1 mg protein) and sup fraction (1.0 mg protein) were incubated for 2 hours at 37° C. in 200 μl of the reaction mixture containing ATP; 1 mM, Glutathione; 6 mM, Glucose-1-phosphate; 10 mM, NAD; 0.25 mM, NADP; 0.25 mM, CoA; 0.04 mM and 0.2 mM [2-^14 C]sodium acetate (0.2 μCi) with 4 μl of test compound solution dissolved in water or dimethyl sulfoxide. To stop reaction and saponify, 1 ml of 15% EtOH-KOH was added to the reactions and heated at 75° C. for 1 hour. Nonsaponifiable lipids were extracted with petroleum ether and incorporated ^14 C radioactivity was counted. Inhibitory activity of compounds was indicated with IC50.
(§1) With respect to the compounds of the present invention, the inhibitory activities against the cholesterol biosynthesis in which HMG-CoA reductase serves as a rate limiting enzyme, were measured by the above Test A and B. The results are shown in Tables 2, 2-2 and 3. Further, the results of the measurements by Test C are also presented.

Series [2] concerns cholesterol biosynthesis in Hep G2 cells. In words: Test B: Inhibition of cholesterol biosynthesis in culture cells. It counts as cell-based. The note with it: acetate added at 0 hr; for Relative activities by Test B-1: based on the activities of CS-514 by Test B-1 being evaluated to be 1. As to the method:
Hep G2 cells at over 5th passage were seeded to 12 well plates and incubated with Dulbecco's modified Eagle (DME) medium containing 10% of fetal bovine serum (FBS) at 37° C., 5% CO2 until cells were confluent for about 7 days. Cells were exposed to the DME medium containing 5% of lipoprotein deficient serum (LpDS) prepared by ultracentrifugation method for over 24 hours. Medium was changed to 0.5 ml of fresh 5% LpDS containing DME before assay and 10 μl of test compound solution dissolved in water or DMSO were added. 0.2 μCi of [2-^14 C]sodium acetate (20 μl ) was added at 0 hr(B-1) or 4 hrs(B-2) after addition of compounds. After 4 hrs further incubation with [2-^14 C]sodium acetate, medium was removed and cells were washed with phosphate buffered saline(PBS) chilled at 4° C. Cells were scraped with rubber policeman and collected to tubes with PBS and digested with 0.2 ml of 0.5 N KOH at 37° C. Aliquot of digestion was used for protein analysis and remaining was saponified with 1 ml of 15% EtOH-KOH at 75° C. for 1 hour. Nonsaponifiable lipids were extracted with petroleum ether and ^14 C radioactivity was counted. Counts were revised by cell protein and indicated with DPM/mg protein. Inhibitory activity of compounds was indicated with IC50.
as §1

A further series deals with cholesterol biosynthesis. In words: Test C: Inhibition of cholesterol biosynthesis in vivo. Further details: species or system Male Sprague-Dawley rats. The note with it: rats. The protocol:
Male Sprague-Dawley rats weighing about 150 g were fed normal Purina chow diet and water ad libitum, and exposed to 12 hours light/12 hours dark lighting pattern (2:00 PM-2:00 AM dark) prior to use for in vivo inhibition test of cholesterol biosynthesis. Animals were separated groups consisting of five rats as to be average mean body weight in each groups. […] As control, rats were orally administered only water or vehicle. At 90 minutes after sample administration, rats were injected intraperitoneally with 10 μCi of [2-^14 C]sodium acetate at volume of 0.2 ml per one. 2 Hours later, blood samples were obtained and serum were separated immediately. Total lipids were extracted according to the method of Folch et al. and saponified with EtOH-KOH. Nonsaponifiable lipids were extracted with petroleum ether and radio activity incorporated into nonsaponifiable lipids was counted.
Inhibitory activity was indicated as percent decrease of counts in testing groups (DPM/2 ml serum/2 hours) from that in control group.

Another series is described as follows: Test D: Acute toxicity. The note with it: mouse, in vivo, oral, 0.5% CMC suspension, read-out: mortality after seven days. Further details: species or system ICR male mice. The protocol: A 0.5% CMC suspension of a test compound was orally administered to ICR male mice (group of from one to three mice). The acute toxicity was determined based on the mortality after seven days. With compound I-5-8 and I-5-11 of the present invention, the mortality was 0% even when they were orally administered in an amount of 824 mg/kg and 982 mg/kg, respectively.

Structures can show the parent of a compound that is named as a salt. Where two headings read alike, the source gives them in different places.

Turning to `CC(C)c1nc(-c2ccccc2)nc(-c2ccc(F)cc2)c1/C=C/[C@@H]1C[C@@H](O)CC(=O)O1` (relative stereo) [Compound I-3-8, (E)-6-[4'-(4''-fluorophenyl)-6'-(1''-methylethyl)-2'-phenylpyrimidin-5 '-ylethenyl]-4-hydroxy-3,4,5,6-tetrahydro-2H-pyran-2-one], the “Relative activities by Test A” value in series [1] was found to be 5.2.
For `CC[C@H](C)C(=O)O[C@H]1C[C@H](O)C=C2C=C[C@H](C)[C@H](CC[C@@H](O)C[C@@H](O)CC(=O)O)[C@H]21` [CS-514, reference compound], the IC50 amounted to 12.5 nM in series [1] and 1400 nM in series [2] (Homo sapiens, HepG2, Test B-1, Hep G2 cells, read-out: IC50 (molar concentration), Test B-1). For the same compound, the “percent decrease of counts relative to control group” value with cholesterol biosynthesis (oral administration of 10 mg/kg) was 55%.
On to `CCOC(=O)CC(O)CC(O)/C=C/c1c(-c2ccc(F)cc2)nc(Cc2ccccc2)nc1C1CC1` (centres unmarked) [Compound I-1-12], for which the “Relative activities by Test B-1” value in series [2] was 41.3.
As for `CCOC(=O)CC(O)CC(O)/C=C/c1c(-c2ccc(F)cc2)nc(-c2cccc(Cl)c2)nc1C1CC1` (centres unmarked) [Compound I-1-13], the “Relative activities by Test B-1” value in series [2] is reported as 41.6.
Turning to `CCOC(=O)CC(O)CC(O)/C=C/c1c(-c2ccc(F)cc2)nc(-c2ccc(OC)cc2)nc1C1CC1` (centres unmarked) [Compound I-1-14], the “Relative activities by Test B-1” value in series [2] was 72.5.
Take `Cc1nc(-c2ccccc2)nc(-c2ccc(F)cc2)c1/C=C/C(O)CC(O)CC(=O)O` (centres unmarked) [Compound I-5-1, Sodium salt of (E)-3,5-dihydroxy-7-[4'-(4''-fluorophenyl)-6'methyl-2 2'-phenylpyrimidin-5'-yl]hept-6-enoic acid]: the IC50 in series [1] came to 18 nM.
On the same count and under the same terms, in the case of `Cc1nc(C)c(/C=C/C(O)CC(O)CC(=O)O)c(-c2ccccc2)n1` (centres unmarked) [Compound I-5-2] it was 5000 nM; in that of `Cc1nc(-c2ccccc2)nc(-c2ccccc2)c1/C=C/C(O)CC(O)CC(=O)O` (centres unmarked) [Compound I-5-3], 100 nM.
`CC(C)c1nc(-c2ccccc2)nc(-c2ccc(F)cc2)c1/C=C/C(O)CC(O)CC(=O)O` (centres unmarked) [Compound I-5-8]: the “Relative activities by Test A” value in series [1] is on record as 4.6. The “Relative activities by Test B-1” value in series [2] worked out at 36.1. Also, in the series “Test D: Acute toxicity” (824 mg/kg), the mortality at 168 h came to 0%.
For the compound `O=C(O)CC(O)CC(O)/C=C/c1c(-c2ccc(F)cc2)nc(-c2ccccc2)nc1C1CC1` (centres unmarked) [Compound I-5-11], the “Relative activities by Test A” value in series [1] was 15.9. For the same compound, the “Relative activities by Test B-1” value in series [2] amounted to 28.4. In the series “Test D: Acute toxicity” (982 mg/kg), the mortality at 168 h worked out at 0%.
Turning to `O=C(O)CC(O)CC(O)/C=C/c1c(-c2ccc(F)cc2)nc(Cc2ccccc2)nc1C1CC1` (centres unmarked) [Compound I-5-12], the “Relative activities by Test A” value in series [1] came to 14.8. Moreover, the “Relative activities by Test B-1” value in series [2] is 46.3.
As for `O=C(O)CC(O)CC(O)/C=C/c1c(-c2ccc(F)cc2)nc(-c2cccc(Cl)c2)nc1C1CC1` (centres unmarked) [Compound I-5-13], the “Relative activities by Test A” value in series [1] is 15.9.
Regarding `COc1ccc(-c2nc(-c3ccc(F)cc3)c(/C=C/C(O)CC(O)CC(=O)O)c(C3CC3)n2)cc1` (centres unmarked) [Compound I-5-14], the “Relative activities by Test A” value in series [1] is recorded as 16.1.
In the case of `Cc1ccc(-c2nc(-c3ccc(F)cc3)c(/C=C/C(O)CC(O)CC(=O)O)c(C3CC3)n2)cc1` (centres unmarked) [Compound I-5-15], in series [1], the “Relative activities by Test A” value was 14.5. The “Relative activities by Test B-1” value in series [2] is 58.5. Moreover, the “percent decrease of counts relative to control group” value with cholesterol biosynthesis (oral administration of 0.5 mg/kg) was 35%.
As to `O=C(O)CC(O)CC(O)/C=C/c1c(-c2ccc(F)cc2)nc(-c2ccc(-c3ccccc3)cc2)nc1C1CC1` (centres unmarked) [Compound I-5-16], the “Relative activities by Test A” value in series [1] was determined as 1.9.
`O=C(O)CC(O)CC(O)/C=C/c1c(-c2ccc(F)cc2)nc(-c2cccc(C(F)(F)F)c2)nc1C1CC1` (centres unmarked) [Compound I-5-17]: the “Relative activities by Test A” value in series [1] is on record as 12.2.
Consider `CC[C@H](C)C(=O)O[C@H]1C[C@@H](C)C=C2C=C[C@H](C)[C@H](CC[C@@H]3C[C@@H](O)CC(=O)O3)[C@H]21` [Mevinolin, reference compound], for which, in series [1], the IC50 was found to be 14 nM.
